Results published in PubChem BioAssay (NCI).
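Test compounds were applied to cells in 96-well plates for 48 hours at 5 doses. The concentration for 50% growth inhibition is given as GI50. TGI: total growth inhibition.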

Key:
Assay in all cases: NCI tumour cell line growth inhibition, 48 h
[1] = system: A498 renal
[2] = system: K-562 leukemia
[3] = system: HOP-62 NSCLC
[4] = system: HS 578T breast
[5] = system: HCT-15 colon
[6] = system: SW-620 colon
[7] = system: 786-0 renal
[8] = system: OVCAR-3 ovarian
[9] = system: RPMI-8226 leukemia
[10] = system: NCI-H226 lung
[11] = system: SNB-75 CNS
[12] = system: SF-539 CNS
[13] = system: OVCAR-4 ovarian
[14] = system: UO-31 renal
[15] = system: HCC-2998 colon
[16] = system: SK-MEL-5 melanoma
[17] = system: ACHN renal
[18] = system: KM12 colon
[19] = system: MDA-MB-231 breast
[20] = system: BT-549 breast
[21] = system: RXF 393 renal
[22] = system: SF-295 CNS
[23] = system: MDA-MB-435
[24] = system: M14 melanoma
[25] = system: SK-MEL-28 melanoma
[26] = system: HCT-116 colon
[27] = system: SR leukemia
[28] = system: MCF7 breast
[29] = system: OVCAR-8 ovarian
[30] = system: SN12C renal
[31] = system: U251 CNS
[32] = system: NCI/ADR-RES ovarian
[33] = system: SK-MEL-2 melanoma
[34] = system: MOLT-4 leukemia
[35] = system: SNB-19 CNS
[36] = system: HT29 colon
[37] = system: NCI-H460 lung
[38] = system: CCRF-CEM leukemia
[39] = system: SF-268 CNS
[40] = system: T-47D breast
[41] = system: LOX IMVI melanoma
[42] = system: CAKI-1 renal
[43] = system: OVCAR-5 ovarian
[44] = system: DU-145 prostate
[45] = system: MALME-3M melanoma
[46] = system: TK-10 renal
[47] = system: IGROV1 ovarian
[48] = system: A549 NSCLC
[49] = system: SK-OV-3 ovarian
[50] = system: COLO 205 colon
[51] = system: NCI-H522 lung
[52] = system: UACC-257 melanoma
[53] = system: HOP-92 NSCLC

C[CH2][Pb]([CH2]C)([CH2]C)[O]C(=O)COc1ccccc1
GI50 [1]: 1750 nM
TGI [1]: 6.61 µM
GI50 [2]: 1470 nM
TGI [2]: 6.64 µM
GI50 [3]: 1640 nM
TGI [3]: 3.76 µM
GI50 [4]: 1530 nM
TGI [4]: 5.2 µM
GI50 [5]: 1980 nM
TGI [5]: 11.6 µM
GI50 [6]: 641 nM
TGI [6]: 2470 nM
GI50 [7]: 2130 nM
TGI [7]: 5.72 µM
GI50 [8]: 1700 nM
TGI [8]: 5.27 µM
GI50 [9]: 1030 nM
TGI [9]: 3.12 µM
GI50 [10]: 1830 nM
TGI [10]: 6.04 µM
GI50 [11]: 1240 nM
TGI [11]: 11.3 µM
GI50 [12]: 1810 nM
TGI [12]: 4.63 µM
GI50 [13]: 949 nM
TGI [13]: 4.96 µM
GI50 [14]: 1050 nM
TGI [14]: 3.7 µM
GI50 [15]: 1650 nM
TGI [15]: 3.85 µM
GI50 [16]: 1190 nM
TGI [16]: 2560 nM
GI50 [17]: 2510 nM
TGI [17]: 11.3 µM
GI50 [18]: 1510 nM
TGI [18]: 5.84 µM
GI50 [19]: 1630 nM
TGI [19]: 4.84 µM
GI50 [20]: 1780 nM
TGI [20]: 6.4 µM
GI50 [21]: 1050 nM
TGI [21]: 3.26 µM
GI50 [22]: 1510 nM
TGI [22]: 3.13 µM
GI50 [23]: 214 nM
TGI [23]: 502 nM
GI50 [24]: 1390 nM
TGI [24]: 6.67 µM
GI50 [25]: 784 nM
TGI [25]: 11 µM
GI50 [26]: 1440 nM
TGI [26]: 2900 nM
GI50 [27]: 595 nM
TGI [27]: 3.88 µM
GI50 [28]: 1770 nM
TGI [28]: 9.34 µM
GI50 [29]: 1760 nM
TGI [29]: 5.68 µM
GI50 [30]: 2390 nM
TGI [30]: 9.61 µM
GI50 [31]: 1740 nM
TGI [31]: 3.89 µM
GI50 [32]: 1970 nM
TGI [32]: 9.24 µM
GI50 [33]: 382 nM
TGI [33]: 1730 nM
GI50 [34]: 1950 nM
TGI [34]: 4.63 µM
GI50 [35]: 2360 nM
TGI [35]: 11.3 µM
GI50 [36]: 1740 nM
TGI [36]: 4.61 µM
GI50 [37]: 2210 nM
TGI [37]: 5.94 µM
GI50 [38]: 1230 nM
TGI [38]: 4.86 µM
GI50 [39]: 1670 nM
TGI [39]: 4.54 µM
GI50 [40]: 757 nM
TGI [40]: 8.82 µM
GI50 [41]: 1400 nM
TGI [41]: 3.22 µM
GI50 [42]: 1950 nM
TGI [42]: 6.18 µM
GI50 [43]: 1740 nM
TGI [43]: 4.61 µM
GI50 [44]: 2430 nM
TGI [44]: 10.7 µM
GI50 [45]: 441 nM
TGI [45]: 7.11 µM
GI50 [46]: 1630 nM
TGI [46]: 5.21 µM
GI50 [47]: 1640 nM
TGI [47]: 6.52 µM
GI50 [48]: 1820 nM
TGI [48]: 5.65 µM
GI50 [49]: 2080 nM
TGI [49]: 6.1 µM
GI50 [50]: 1960 nM
TGI [50]: 4.51 µM
GI50 [51]: 562 nM
TGI [51]: 2110 nM
GI50 [52]: 557 nM
TGI [52]: 4.75 µM
GI50 [53]: 390 nM
TGI [53]: 4.1 µM
